The results in this text go back to ChEMBL document CHEMBL2407045, “Discovery and gram-scale synthesis of BMS-593214, a potent, selective FVIIa inhibitor” (Bioorg Med Chem Lett, 2013).

For data set [1], the species on record is Oryctolagus cuniculus. The data set can be described thus: Toxicity in rabbit assessed as prolongation of cuticle bleeding time. Format: organism-based. Particulars: in vivo.
Data set [2] is filed under the species Oryctolagus cuniculus. Put plainly: Antithrombotic activity in rabbit electric current arterial thrombosis model. Format: functional, organism-based.
Another data set concerns the target T1, Coagulation factor VII (Homo sapiens, UniProt P08709).
T1 sequence (P08709 whole entry): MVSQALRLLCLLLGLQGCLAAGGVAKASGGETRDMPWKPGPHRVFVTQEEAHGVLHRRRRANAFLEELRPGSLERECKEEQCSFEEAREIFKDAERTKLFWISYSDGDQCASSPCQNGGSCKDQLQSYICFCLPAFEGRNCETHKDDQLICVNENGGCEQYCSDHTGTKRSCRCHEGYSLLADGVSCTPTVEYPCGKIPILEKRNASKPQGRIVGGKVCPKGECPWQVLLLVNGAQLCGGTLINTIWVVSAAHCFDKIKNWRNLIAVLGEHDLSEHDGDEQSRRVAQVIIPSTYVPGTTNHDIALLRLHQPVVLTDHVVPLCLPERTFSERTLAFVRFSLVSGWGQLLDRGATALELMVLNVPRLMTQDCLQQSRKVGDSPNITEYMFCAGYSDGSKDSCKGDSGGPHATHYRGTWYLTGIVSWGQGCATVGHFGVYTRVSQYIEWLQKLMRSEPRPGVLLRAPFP
The data set can be described thus: Inhibition of recombinant human coagulation factor 7A.

A further data set concerns the target Prothrombin (Homo sapiens, UniProt P00734). The data set can be described thus: Inhibition of purified human thrombin.
In another data set the target is Trypsin (Homo sapiens, UniProt P07477+P07478+P35030). The data set can be described thus: Inhibition of purified human trypsin. Format: protein assay.
The next data set concerns the target Coagulation factor X (Homo sapiens, UniProt P00742). Put plainly: Inhibition of purified human coagulation factor 10a.
The nature of data set [3]: Anticoagulant activity in plasma (unknown origin) assessed as concentration required to double prothrombin time. Format: functional.

What is called EC50 is the concentration giving half of the maximal effect. Low readings indicate greater potency, high ones weaker potency. The Ki is the equilibrium dissociation constant of an inhibitor or competing ligand from its target.

Coagulation factor X, sequence (P00742 41-179 limits assumed): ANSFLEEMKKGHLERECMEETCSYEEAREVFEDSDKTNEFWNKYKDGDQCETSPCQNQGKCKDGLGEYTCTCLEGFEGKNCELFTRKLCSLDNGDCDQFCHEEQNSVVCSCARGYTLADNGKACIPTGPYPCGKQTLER
Coagulation factor X, sequence (P00742 235-488 limits assumed): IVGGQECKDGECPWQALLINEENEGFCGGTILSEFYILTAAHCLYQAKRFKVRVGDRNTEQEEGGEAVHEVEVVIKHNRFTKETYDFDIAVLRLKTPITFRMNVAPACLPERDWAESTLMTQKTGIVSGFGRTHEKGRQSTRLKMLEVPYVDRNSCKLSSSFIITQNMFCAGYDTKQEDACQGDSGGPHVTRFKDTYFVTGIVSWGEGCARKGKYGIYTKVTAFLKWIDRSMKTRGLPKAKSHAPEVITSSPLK

`COc1cc([C@@H]2Nc3ccc(C(=N)N)cc3[C@H]3c4ccccc4C[C@H]32)c(-c2ccc(C(=O)O)cc2)cc1O`: in the data set listed under Oryctolagus cuniculus [1], the Activity result is reported as “Non-toxic”. This molecule also returned an EC50 in the data set filed under Oryctolagus cuniculus [2] of 570 nM.

Regarding `C[C@]1(c2ccccc2)C[C@H](c2ccc(O)cc2)Nc2ccc(C(=N)N)cc21`, the inhibition constant Ki at Coagulation factor VII stood at 8800 nM.

In the case of `COc1cc([C@H]2C[C@H](c3ccccc3)c3cc(C(=N)N)ccc3N2)ccc1O`, the Ki on Coagulation factor VII was determined as 1800 nM.

In the case of `COc1cc([C@@H]2Nc3ccc(C(=N)N)cc3[C@H]3c4ccccc4C[C@H]32)ccc1O` (racemic), the Ki is 300 nM at Prothrombin, 160 nM at Coagulation factor VII, 300 nM at Trypsin and greater than 500 nM at Coagulation factor X.

As for `COc1cc([C@@H]2Nc3ccc(C(=N)N)cc3[C@H]3c4ccccc4C[C@H]32)c(-c2ccccc2C(=O)O)cc1O` (racemic), the Ki at Prothrombin was found to be 35 nM; on Coagulation factor VII it was 0.62 nM; at Trypsin it was 7.5 nM; at Coagulation factor X it was 16 nM.

With `COc1cc([C@@H]2Nc3ccc(C(=N)N)cc3[C@H]3c4ccccc4C[C@H]32)c(-c2cccc(C(=O)O)c2)cc1O` (racemic), the Ki is 330 nM at Prothrombin, 8.1 nM at Coagulation factor VII, 6900 nM at Trypsin and 1500 nM on Coagulation factor X.

As to `COc1cc([C@@H]2Nc3ccc(C(=N)N)cc3[C@H]3c4ccccc4C[C@H]32)c(-c2ccc(C(=O)O)cc2)cc1O` (racemic), the Ki on Prothrombin is 1800 nM; on Coagulation factor VII, 1.9 nM; at Trypsin it was greater than 8000 nM; on Coagulation factor X it was 1300 nM. Further, the 2PT in data set [3] amounted to 16 µM.
